Results taken from US20260098046A1, “RIFABUTIN ANALOGS FOR THE TREATMENT OF DISEASE” (BIOVERSYS AG, priority 2022, published 2026).
≈ marks a conversion by molar mass, not a printed value. Where two headings read alike, the source gives them in different places.

What was measured:
Type in all cases: cell-based
[1] = test system: S. aureus (UAMS-1625 strain); assay: MIC by broth microdilution (CLSI) against S. aureus; settings: Staphylococcus aureus, 20 h, read-out: In vitro activity (MIC) S. aureus
Description: (§1) MIC values were determined by broth microdilution method according to the CLSI guideline. Unless otherwise mentioned, MIC against A. baumannii was performed in RPMI medium supplemented with 10% FCS. MIC against M. abscessus was performed in Middlebrook 7H9 broth supplemented with Middlebrook ADC growth supplement (10%). All other MIC were performed in standard cation adjusted Mueller Hinton broth, supplemented with Middlebrook ADC growth supplement (5%) for the slow growing mycobacteria (M. xenopi, M. kansasii and M. avium).
(§2) The following procedure applies to all species tested, except for M. xenopi. From a fresh culture plate (from overnight to several days depending on the bacteria), cells were resuspended in 0.9% (w/v) saline solution and bacterial inoculum was prepared in the respective testing medium with 5×10^5 CFU/mL. For M. xenopi, the inoculum was prepared from a fresh liquid culture (7H9+ADC). The appropriate volumes of a 10 mg/mL compound solution were directly dispensed in the 96-well assay plate using a digital dispenser to create two-fold dilution series from 32 to 0.002 μg/mL final concentration for A. baumannii and S. aureus; from 16 to 0.016 μg/mL for M. abscessus and M. avium; and from 1 to 6×10^−5 μg/mL for M. kansasii and M. xenopi. 100 μL of bacterial suspension was finally added to the compounds. Plates were covered and incubated without shaking at 35° C. for 20 hours for A. baumanii and S. aureus; at 30° C. for 4 days for M. abscessus; and at 37° C. for 7 days (at least) for M. kansasii (covered with aluminum foil to avoid light exposure), M. avium and M. xenopi. Every experiment contained an antibiotic as quality control. MIC was determined visually as the lowest concentration of a compound that prevents visible growth of the bacteria.
(§3) The in vitro activity of compounds described herein was determined against S. aureus (UAMS-1625 strain), A. baumannii (HUMC1 strain), M. abscessus (ATCC 19977), M. kansasii (ATCC12478), M. avium (ATCC25291), and M. xenopi (ATCC19250).

[2] = test system: A. baumannii (HUMC1 strain); assay: MIC by broth microdilution (CLSI) against A. baumannii; settings: Acinetobacter baumannii, RPMI medium supplemented with 10% FCS, 35° C. for 20 hours, read-out: In vitro activity (MIC) A. baumannii
Description: as §1, §2, §3

[3] = test system: M. abscessus (ATCC 19977); assay: MIC by broth microdilution (CLSI) against M. abscessus; settings: Mycobacteroides abscessus
Description: as §1, §2, §3

[4] = test system: M. kansasii (ATCC12478); assay: MIC by broth microdilution (CLSI) against M. kansasii; settings: Mycobacterium kansasii, 168 h, cation adjusted Mueller Hinton broth + ADC (5%), 37° C. for 7 days (at least), read-out: In vitro activity (MIC) M. kansasii
Description: as §1, §2, §3

[5] = test system: M. xenopi (ATCC19250); assay: MIC by broth microdilution (CLSI) against M. xenopi; settings: Mycobacterium xenopi, 168 h, cation adjusted Mueller Hinton broth + ADC (5%), 37° C. for 7 days (at least), read-out: In vitro activity (MIC) M. xenopi
Description: as §1, §2, §3

[6] = test system: M. avium (ATCC25291); assay: MIC by broth microdilution (CLSI) against M. avium; settings: Mycobacterium avium, 168 h, cation adjusted Mueller Hinton broth + ADC (5%), 37° C. for 7 days (at least), read-out: In vitro activity (MIC) M. avium
Description: as §1, §2, §3

[7] = ATCC19977, 96 h, ATCC 19977, Middlebrook 7H9 broth + ADC (10%), 30° C. for 4 days, read-out: In vitro activity (MIC) M. abscessus

MIC ([3]; ATCC19977, tested M. abscessus strains, read-out: MIC value on M. abscessus) [µg/mL]	SMILES	MIC [1] [µg/mL]	MIC [2] [µg/mL]	MIC [3, 7] [µg/mL]	MIC [4] [µg/mL]	MIC [5] [µg/mL]	MIC [6] [µg/mL]
–	CO[C@H]1/C=C/O[C@@]2(C)Oc3c(C)c(O)c4c(c3C2=O)C2=NC3(CCN(CC(C)C)CC3)NC2=C(NC(=O)/C(C)=C\C=C\[C@H](C)[C@H](O)[C@@H](C)[C@@H](O)[C@@H](C)[C@H](OC(=O)Cn2cc(-c3ccccc3)nn2)[C@@H]1C)C4=O [Compound 1]	0.125 (≈ 0.126 µM)	0.004 (≈ 0.00404 µM)	0.25	0.002	0.016	0.03
–	COc1ccc(-c2cn(CC(=O)O[C@H]3[C@H](C)[C@H](O)[C@H](C)[C@@H](O)[C@@H](C)/C=C/C=C(/C)C(=O)NC4=C5NC6(CCN(CC(C)C)CC6)N=C5c5c(c(O)c(C)c6c5C(=O)[C@@](C)(O/C=C/[C@H](OC)[C@H]3C)O6)C4=O)nn2)cc1 [Compound 2]	0.125 (≈ 0.123 µM)	0.016 (≈ 0.0157 µM)	0.25	0.002	0.125	0.06
–	CO[C@H]1/C=C/O[C@@]2(C)Oc3c(C)c(O)c4c(c3C2=O)C2=NC3(CCN(CC(C)C)CC3)NC2=C(NC(=O)/C(C)=C\C=C\[C@H](C)[C@H](O)[C@@H](C)[C@@H](O)[C@@H](C)[C@H](OC(=O)Cn2cc(-c3ccc(N)cc3)nn2)[C@@H]1C)C4=O [Compound 3]	0.03 (≈ 0.0298 µM)	≤ 0.002	1	–	–	–
–	CO[C@H]1/C=C/O[C@@]2(C)Oc3c(C)c(O)c4c(c3C2=O)C2=NC3(CCN(CC(C)C)CC3)NC2=C(NC(=O)/C(C)=C\C=C\[C@H](C)[C@H](O)[C@@H](C)[C@@H](O)[C@@H](C)[C@H](OC(=O)Cn2cc(-c3ccc([N+](=O)[O-])cc3)nn2)[C@@H]1C)C4=O [Compound 4]	0.5 (≈ 0.483 µM)	0.125 (≈ 0.121 µM)	0.125	0.002	0.03	0.03
–	COc1ccc2cc(-c3cn(CC(=O)O[C@H]4[C@H](C)[C@H](O)[C@H](C)[C@@H](O)[C@@H](C)/C=C/C=C(/C)C(=O)NC5=C6NC7(CCN(CC(C)C)CC7)N=C6c6c(c(O)c(C)c7c6C(=O)[C@@](C)(O/C=C/[C@H](OC)[C@H]4C)O7)C5=O)nn3)ccc2c1 [Compound 6]	8 (≈ 7.47 µM)	1 (≈ 0.934 µM)	0.25	0.002	0.03	0.06
–	CO[C@H]1/C=C/O[C@@]2(C)Oc3c(C)c(O)c4c(c3C2=O)C2=NC3(CCN(CC(C)C)CC3)NC2=C(NC(=O)/C(C)=C\C=C\[C@H](C)[C@H](O)[C@@H](C)[C@@H](O)[C@@H](C)[C@H](OC(=O)Cn2cc(-c3ccc(-c5ccccc5)cc3)nn2)[C@@H]1C)C4=O [Compound 7]	8 (≈ 7.5 µM)	1 (≈ 0.938 µM)	1	–	–	–
–	CO[C@H]1/C=C/O[C@@]2(C)Oc3c(C)c(O)c4c(c3C2=O)C2=NC3(CCN(CC(C)C)CC3)NC2=C(NC(=O)/C(C)=C\C=C\[C@H](C)[C@H](O)[C@@H](C)[C@@H](O)[C@@H](C)[C@H](OC(=O)Cn2cc(-c3ccccn3)nn2)[C@@H]1C)C4=O [Compound 8]	0.03 (≈ 0.0303 µM)	≤ 0.002	0.25	0.004	0.06	0.06
–	CO[C@H]1/C=C/O[C@@]2(C)Oc3c(C)c(O)c4c(c3C2=O)C2=NC3(CCN(CC(C)C)CC3)NC2=C(NC(=O)/C(C)=C\C=C\[C@H](C)[C@H](O)[C@@H](C)[C@@H](O)[C@@H](C)[C@H](OC(=O)Cn2cc(CCCc3ccccc3)nn2)[C@@H]1C)C4=O [Compound 10]	8 (≈ 7.75 µM)	0.125 (≈ 0.121 µM)	0.5	–	–	–
–	CO[C@H]1/C=C/O[C@@]2(C)Oc3c(C)c(O)c4c(c3C2=O)C2=NC3(CCN(CC(C)C)CC3)NC2=C(NC(=O)/C(C)=C\C=C\[C@H](C)[C@H](O)[C@@H](C)[C@@H](O)[C@@H](C)[C@H](OC(=O)Cn2cc(-c3cccs3)nn2)[C@@H]1C)C4=O [Compound 11]	0.03 (≈ 0.0301 µM)	0.008 (≈ 0.00803 µM)	1	–	–	–
–	CO[C@H]1/C=C/O[C@@]2(C)Oc3c(C)c(O)c4c(c3C2=O)C2=NC3(CCN(CC(C)C)CC3)NC2=C(NC(=O)/C(C)=C\C=C\[C@H](C)[C@H](O)[C@@H](C)[C@@H](O)[C@@H](C)[C@H](OC(=O)Cn2cc(C(C)(C)N)nn2)[C@@H]1C)C4=O [Compound 13]	0.125 (≈ 0.129 µM)	≤ 0.002	1	–	–	–
–	CO[C@H]1/C=C/O[C@@]2(C)Oc3c(C)c(O)c4c(c3C2=O)C2=NC3(CCN(CC(C)C)CC3)NC2=C(NC(=O)/C(C)=C\C=C\[C@H](C)[C@H](O)[C@@H](C)[C@@H](O)[C@@H](C)[C@H](OC(=O)Cn2cc(CN3CCS(=O)(=O)CC3)nn2)[C@@H]1C)C4=O [Compound 14]	0.06 (≈ 0.0565 µM)	≤ 0.002	1	–	–	–
–	CO[C@H]1/C=C/O[C@@]2(C)Oc3c(C)c(O)c4c(c3C2=O)C2=NC3(CCN(CC(C)C)CC3)NC2=C(NC(=O)/C(C)=C\C=C\[C@H](C)[C@H](O)[C@@H](C)[C@@H](O)[C@@H](C)[C@H](OC(=O)Cn2cc(CNS(C)(=O)=O)nn2)[C@@H]1C)C4=O [Compound 15]	0.125 (≈ 0.122 µM)	≤ 0.002	1	–	–	–
–	CO[C@H]1/C=C/O[C@@]2(C)Oc3c(C)c(O)c4c(c3C2=O)C2=NC3(CCN(CC(C)C)CC3)NC2=C(NC(=O)/C(C)=C\C=C\[C@H](C)[C@H](O)[C@@H](C)[C@@H](O)[C@@H](C)[C@H](OC(=O)Cn2cc(CNS(=O)(=O)c3ccccc3)nn2)[C@@H]1C)C4=O [Compound 16]	0.125 (≈ 0.115 µM)	0.008 (≈ 0.00739 µM)	0.5	–	–	–
–	CO[C@H]1/C=C/O[C@@]2(C)Oc3c(C)c(O)c4c(c3C2=O)C2=NC3(CCN(CC(C)C)CC3)NC2=C(NC(=O)/C(C)=C\C=C\[C@H](C)[C@H](O)[C@@H](C)[C@@H](O)[C@@H](C)[C@H](OC(=O)Cn2cc(CNS(=O)(=O)c3ccc(C)cc3)nn2)[C@@H]1C)C4=O [Compound 17]	0.25 (≈ 0.228 µM)	0.008 (≈ 0.00729 µM)	0.5	–	–	–
–	CO[C@H]1/C=C/O[C@@]2(C)Oc3c(C)c(O)c4c(c3C2=O)C2=NC3(CCN(CC(C)C)CC3)NC2=C(NC(=O)/C(C)=C\C=C\[C@H](C)[C@H](O)[C@@H](C)[C@@H](O)[C@@H](C)[C@H](OC(=O)Cn2cc(CNS(=O)(=O)c3ccc(Cl)cc3)nn2)[C@@H]1C)C4=O [Compound 18]	0.5 (≈ 0.447 µM)	0.06 (≈ 0.0537 µM)	0.5	–	–	–
–	CCCc1cn(CC(=O)O[C@H]2[C@H](C)[C@H](O)[C@H](C)[C@@H](O)[C@@H](C)/C=C/C=C(/C)C(=O)NC3=C4NC5(CCN(CC(C)C)CC5)N=C4c4c(c(O)c(C)c5c4C(=O)[C@@](C)(O/C=C/[C@H](OC)[C@H]2C)O5)C3=O)nn1 [Compound 24]	0.03 (≈ 0.0314 µM)	0.004 (≈ 0.00418 µM)	1	–	–	–
–	CO[C@H]1/C=C/O[C@@]2(C)Oc3c(C)c(O)c4c(c3C2=O)C2=NC3(CCN(CC(C)C)CC3)NC2=C(NC(=O)/C(C)=C\C=C\[C@H](C)[C@H](O)[C@@H](C)[C@@H](O)[C@@H](C)[C@H](OC(=O)Cn2cc(C3CC3)nn2)[C@@H]1C)C4=O [Compound 25]	0.03 (≈ 0.0314 µM)	≤ 0.002	4	–	–	–
–	CO[C@H]1/C=C/O[C@@]2(C)Oc3c(C)c(O)c4c(c3C2=O)C2=NC3(CCN(CC(C)C)CC3)NC2=C(NC(=O)/C(C)=C\C=C\[C@H](C)[C@H](O)[C@@H](C)[C@@H](O)[C@@H](C)[C@H](OC(=O)Cn2cc(C(C)(C)C)nn2)[C@@H]1C)C4=O [Compound 27]	0.06 (≈ 0.0618 µM)	0.004 (≈ 0.00412 µM)	2	–	–	–
–	CO[C@H]1/C=C/O[C@@]2(C)Oc3c(C)c(O)c4c(c3C2=O)C2=NC3(CCN(CC(C)C)CC3)NC2=C(NC(=O)/C(C)=C\C=C\[C@H](C)[C@H](O)[C@@H](C)[C@@H](O)[C@@H](C)[C@H](OC(=O)Cn2cc(CC3CCCCC3)nn2)[C@@H]1C)C4=O [Compound 28]	0.5 (≈ 0.495 µM)	0.03 (≈ 0.0297 µM)	0.5	–	–	–
> 32	CO[C@H]1/C=C/O[C@@]2(C)Oc3c(C)c(O)c4c(O)c(c(/C=N/N5CCN(C)CC5)c(O)c4c3C2=O)NC(=O)/C(C)=C\C=C\[C@H](C)[C@H](O)[C@@H](C)[C@@H](O)[C@@H](C)[C@H](OC(C)=O)[C@@H]1C [Rifampicin, reference compound]	–	–	–	–	–	–
